# Values joined by “and” are separate entries in the source; they are usually repeats but may differ in a detail not shown here. Equal entries are not always repeated. Records with an inconclusive call do not appear.
# Tested on: BDF1 mice, s.c. Lewis lung carcinoma, T/C %
# Experiment: NCI In Vivo Anticancer Drug Screen. Data for tumor model Lewis Lung Carcinoma (subcutaneous) in B6D2F1 (BDF1) mice
# Description: The antitumor activity of compounds was measured in mice bearing transplantable tumors. Survival or tumor size were measured and the results are expressed as the measurement made in the treated group (T) divided by the measurement made in the vehicle treated control group (C). The tumor model used in this assay is Lewis Lung Carcinoma (subcutaneous) in B6D2F1 (BDF1) mice
# [1] = endpoint: median survival time, dose: 50.0 mg/kg/injection, schedule: Q01DX009 (ip), vehicle: saline, higher = longer survival
# [2] = endpoint: median survival time, dose: 100.0 mg/kg/injection, schedule: Q01DX009 (ip), vehicle: saline, higher = longer survival
# [3] = endpoint: median survival time, dose: 200.0 mg/kg/injection, schedule: Q01DX009 (ip), vehicle: saline, higher = longer survival
# [4] = endpoint: mean tumor weight, dose: 600.0 mg/kg/injection, schedule: Q01DX011 (ip), vehicle: other, higher = larger tumour
# [5] = endpoint: mean tumor weight, dose: 125.0 mg/kg/injection, schedule: Q01DX011 (ip), vehicle: saline, higher = larger tumour
compound,measurement,setting,value
O=C1OC(C(O)CO)C(O)=C1O (configuration not stated),T/C,"endpoint: median survival time, dose: 1.0 mg/kg/injection, schedule: Q02DX009 (ip), vehicle: saline, higher = longer survival",113 % of control
same,T/C,"endpoint: median survival time, dose: 1000.0 mg/kg/injection, schedule: Q02DX009 (ip), vehicle: saline, higher = longer survival",87 % of control
same,T/C,"endpoint: median survival time, dose: 10000.0 mg/kg/injection, schedule: Q02DX009 (ip), vehicle: saline, higher = longer survival",10 % of control
O=c1cnn(C2OC(CO)C(O)C2O)c(=O)[nH]1 (configuration not stated),T/C,"endpoint: median survival time, dose: 150.0 mg/kg/injection, schedule: Q01DX009 (ip), vehicle: Klucel (hydroxypropylcellulose) (HPC), higher = longer survival",150 % of control
same,T/C,"endpoint: median survival time, dose: 600.0 mg/kg/injection, schedule: Q01DX009 (ip), vehicle: Klucel (hydroxypropylcellulose) (HPC), higher = longer survival",157 % of control
CCCCCCC(=O)NC1=C(N2CC2)C(=O)C(NC(=O)CCCCCC)=C(N2CC2)C1=O,T/C,"endpoint: mean tumor weight, dose: 3.8 mg/kg/injection, schedule: Q01DX011 (ip), vehicle: other, higher = larger tumour",101 % of control
same,T/C,"endpoint: mean tumor weight, dose: 7.5 mg/kg/injection, schedule: Q01DX011 (ip), vehicle: other, higher = larger tumour",81 % of control
same,T/C,"endpoint: mean tumor weight, dose: 30.0 mg/kg/injection, schedule: Q01DX011 (ip), vehicle: other, higher = larger tumour",78 % of control
same,T/C,"endpoint: mean tumor weight, dose: 60.0 mg/kg/injection, schedule: Q01DX011 (ip), vehicle: other, higher = larger tumour",30 % of control
Oc1ccc(Nc2ccnc3cc(Cl)ccc23)cc1CN(CCCl)CCCl,T/C,"endpoint: median survival time, dose: 2.5 mg/kg/injection, schedule: Q01DX009 (ip), vehicle: saline, higher = longer survival",108 % of control
COc1cc(-c2cc(=O)c3c(OC)c(OC)c(OC)c(OC)c3o2)cc(OC)c1OC,T/C,"endpoint: mean tumor weight, dose: 50.0 mg/kg/injection, schedule: Q01DX010 (sc), vehicle: steriod suspending solution, higher = larger tumour",87 % of control
same,T/C,"endpoint: mean tumor weight, dose: 100.0 mg/kg/injection, schedule: Q01DX010 (sc), vehicle: steriod suspending solution, higher = larger tumour",102 % of control
same,T/C,"endpoint: mean tumor weight, dose: 200.0 mg/kg/injection, schedule: Q01DX010 (sc), vehicle: steriod suspending solution, higher = larger tumour",97 % of control
CCCN(/C=C/C=C/C=[N+](CCC)CCC)CCC,T/C,"endpoint: median survival time, dose: 0.03 mg/kg/injection, schedule: Q01DX009 (ip), vehicle: saline, higher = longer survival",114 % of control
same,T/C,"endpoint: median survival time, dose: 0.05 mg/kg/injection, schedule: Q01DX009 (ip), vehicle: saline, higher = longer survival",100 % of control
same,T/C,"endpoint: median survival time, dose: 0.1 mg/kg/injection, schedule: Q01DX009 (ip), vehicle: saline, higher = longer survival",115 % of control
same,T/C,"endpoint: median survival time, dose: 0.2 mg/kg/injection, schedule: Q01DX009 (ip), vehicle: saline, higher = longer survival",108 % of control
CC1CCCC(NC(=O)N(CCCl)N=O)C1 (configuration not stated),T/C,"endpoint: median survival time, dose: 20.0 mg/kg/injection, schedule: Q01DX001 (ip), vehicle: gum acacia, higher = longer survival",110 % of control
same,T/C,"endpoint: median survival time, dose: 30.0 mg/kg/injection, schedule: Q01DX001 (ip), vehicle: gum acacia, higher = longer survival",110 % of control
same,T/C,"endpoint: median survival time, dose: 43.0 mg/kg/injection, schedule: Q01DX001 (ip), vehicle: gum acacia, higher = longer survival",92 % of control
same,T/C,"endpoint: median survival time, dose: 64.0 mg/kg/injection, schedule: Q01DX001 (ip), vehicle: gum acacia, higher = longer survival",90 % of control
same,T/C,"endpoint: median survival time, dose: 96.0 mg/kg/injection, schedule: Q01DX001 (ip), vehicle: gum acacia, higher = longer survival",155 % of control
OCc1ccccc1OC1OC(CO)C(O)C(O)C1O (configuration not stated),T/C,"endpoint: mean tumor weight, dose: 100.0 mg/kg/injection, schedule: Q01DX011 (ip), vehicle: carboxymethylcellulose (CMC), higher = larger tumour",106 % of control
same,T/C,"endpoint: mean tumor weight, dose: 200.0 mg/kg/injection, schedule: Q01DX011 (ip), vehicle: carboxymethylcellulose (CMC), higher = larger tumour",86 % of control
same,T/C,"endpoint: mean tumor weight, dose: 400.0 mg/kg/injection, schedule: Q01DX011 (ip), vehicle: carboxymethylcellulose (CMC), higher = larger tumour",100 % of control
COC1OC(CNC(=O)N(C)N=O)C(O)C(O)C1O (configuration not stated),T/C,[1],102 % of control
same,T/C,[2],112 % of control
same,T/C,[3],97 % of control
CC(C)NCC(=O)c1ccc(O)c(O)c1,T/C,"endpoint: median survival time, dose: 5.0 mg/kg/injection, schedule: Q01DX009 (ip), vehicle: saline, higher = longer survival",107 % of control
same,T/C,"endpoint: median survival time, dose: 10.0 mg/kg/injection, schedule: Q01DX009 (ip), vehicle: saline, higher = longer survival",114 % of control
same,T/C,"endpoint: median survival time, dose: 20.0 mg/kg/injection, schedule: Q01DX009 (ip), vehicle: saline, higher = longer survival",114 % of control
same,T/C,"endpoint: median survival time, dose: 40.0 mg/kg/injection, schedule: Q01DX009 (ip), vehicle: saline, higher = longer survival",111 % of control
Cc1ccc(NC(=O)N(CCCl)N=O)cc1C,T/C,"endpoint: median survival time, dose: 3.12 mg/kg/injection, schedule: Q01DX009 (ip), vehicle: Klucel (hydroxypropylcellulose) (HPC), higher = longer survival",112 % of control
same,T/C,"endpoint: median survival time, dose: 6.25 mg/kg/injection, schedule: Q01DX009 (ip), vehicle: Klucel (hydroxypropylcellulose) (HPC), higher = longer survival",87 % of control
c1ccc2c3c(ccc2c1)Sc1ccc2ccccc2c1N3,T/C,"endpoint: mean tumor weight, dose: 400.0 mg/kg/injection, schedule: Q01DX011 (ip), vehicle: other, higher = larger tumour",78 % of control
same,T/C,[4],57 % of control
same,T/C,"endpoint: mean tumor weight, dose: 800.0 mg/kg/injection, schedule: Q01DX011 (ip), vehicle: other, higher = larger tumour",57 % of control
C=C(C(=O)O)C(=O)O,T/C,[1],105 % of control
same,T/C,[2],105 % of control
same,T/C,[3],103 % of control
c1ccc2nc3ccccc3c-2cc1,T/C,[5],90 % of control
same,T/C,"endpoint: mean tumor weight, dose: 250.0 mg/kg/injection, schedule: Q01DX011 (ip), vehicle: saline, higher = larger tumour",76 % of control
same,T/C,"endpoint: mean tumor weight, dose: 500.0 mg/kg/injection, schedule: Q01DX011 (ip), vehicle: saline, higher = larger tumour",48 % of control
same,T/C,"endpoint: mean tumor weight, dose: 1000.0 mg/kg/injection, schedule: Q01DX011 (ip), vehicle: saline, higher = larger tumour",56 % of control
CC(C)NCC(O)COc1cccc2ccccc12 (configuration not stated),T/C,"endpoint: median survival time, dose: 2.0 mg/kg/injection, schedule: Q01DX009 (ip), vehicle: Klucel (hydroxypropylcellulose) (HPC), higher = longer survival",95 % of control and 110 % of control
same,T/C,"endpoint: median survival time, dose: 2.0 mg/kg/injection, schedule: Q02DX009 (ip), vehicle: Klucel (hydroxypropylcellulose) (HPC), higher = longer survival",123 % of control
same,T/C,"endpoint: median survival time, dose: 4.0 mg/kg/injection, schedule: Q02DX009 (ip), vehicle: Klucel (hydroxypropylcellulose) (HPC), higher = longer survival",95 % of control and 107 % of control
same,T/C,"endpoint: median survival time, dose: 8.0 mg/kg/injection, schedule: Q02DX009 (ip), vehicle: Klucel (hydroxypropylcellulose) (HPC), higher = longer survival",100 % of control and 108 % of control
same,T/C,"endpoint: median survival time, dose: 16.0 mg/kg/injection, schedule: Q02DX009 (ip), vehicle: Klucel (hydroxypropylcellulose) (HPC), higher = longer survival",92 % of control and 111 % of control
same,T/C,"endpoint: median survival time, dose: 32.0 mg/kg/injection, schedule: Q02DX009 (ip), vehicle: Klucel (hydroxypropylcellulose) (HPC), higher = longer survival",90 % of control and 105 % of control
same,T/C,"endpoint: median survival time, dose: 64.0 mg/kg/injection, schedule: Q02DX009 (ip), vehicle: Klucel (hydroxypropylcellulose) (HPC), higher = longer survival",101 % of control and 118 % of control
C[C@H]1CC[C@@]2(NC1)O[C@H]1C[C@H]3[C@@H]4CC[C@H]5C[C@@H](O)CC[C@]5(C)[C@H]4CC[C@]3(C)[C@H]1[C@@H]2C,T/C,"endpoint: mean tumor weight, dose: 3.13 mg/kg/injection, schedule: Q01DX011 (sc), vehicle: steriod suspending solution, higher = larger tumour",83 % of control
same,T/C,"endpoint: mean tumor weight, dose: 6.25 mg/kg/injection, schedule: Q01DX011 (sc), vehicle: steriod suspending solution, higher = larger tumour",108 % of control
same,T/C,"endpoint: mean tumor weight, dose: 12.5 mg/kg/injection, schedule: Q01DX011 (sc), vehicle: steriod suspending solution, higher = larger tumour",96 % of control
same,T/C,"endpoint: mean tumor weight, dose: 25.0 mg/kg/injection, schedule: Q01DX011 (sc), vehicle: steriod suspending solution, higher = larger tumour",96 % of control and 105 % of control
same,T/C,"endpoint: mean tumor weight, dose: 50.0 mg/kg/injection, schedule: Q01DX011 (sc), vehicle: steriod suspending solution, higher = larger tumour",119 % of control
same,T/C,"endpoint: mean tumor weight, dose: 100.0 mg/kg/injection, schedule: Q01DX011 (sc), vehicle: steriod suspending solution, higher = larger tumour",117 % of control
same,T/C,"endpoint: mean tumor weight, dose: 200.0 mg/kg/injection, schedule: Q01DX011 (sc), vehicle: steriod suspending solution, higher = larger tumour",110 % of control
same,T/C,"endpoint: mean tumor weight, dose: 400.0 mg/kg/injection, schedule: Q01DX011 (sc), vehicle: steriod suspending solution, higher = larger tumour",93 % of control
Nc1ccc2nc3ccc(N)cc3[n+](-c3ccccc3)c2c1,T/C,"endpoint: median survival time, dose: 2.0 mg/kg/injection, schedule: Q01DX009 (ip), vehicle: saline, higher = longer survival",88 % of control
Nc1nc(SCc2ccccc2)c2ncn(C3CCCC3)c2n1,T/C,"endpoint: mean tumor weight, dose: 75.0 mg/kg/injection, schedule: Q01DX011 (ip), vehicle: other, higher = larger tumour",115 % of control
same,T/C,"endpoint: mean tumor weight, dose: 150.0 mg/kg/injection, schedule: Q01DX011 (ip), vehicle: other, higher = larger tumour",81 % of control
same,T/C,"endpoint: mean tumor weight, dose: 300.0 mg/kg/injection, schedule: Q01DX011 (ip), vehicle: other, higher = larger tumour",54 % of control
same,T/C,[4],47 % of control and 65 % of control
same,T/C,"endpoint: mean tumor weight, dose: 750.0 mg/kg/injection, schedule: Q01DX011 (ip), vehicle: other, higher = larger tumour",52 % of control
CNS(=O)(=O)c1ncnc2nc[nH]c12,T/C,"endpoint: mean tumor weight, dose: 22.0 mg/kg/injection, schedule: Q01DX011 (ip), vehicle: carboxymethylcellulose (CMC), higher = larger tumour",61 % of control
same,T/C,"endpoint: mean tumor weight, dose: 35.0 mg/kg/injection, schedule: Q01DX011 (ip), vehicle: carboxymethylcellulose (CMC), higher = larger tumour",62 % of control
same,T/C,"endpoint: mean tumor weight, dose: 50.0 mg/kg/injection, schedule: Q01DX011 (ip), vehicle: carboxymethylcellulose (CMC), higher = larger tumour",56 % of control
CCN(CC)C(=S)S,T/C,[5],86 % of control
same,T/C,"endpoint: median survival time, dose: 125.0 mg/kg/injection, schedule: Q01DX011 (ip), vehicle: saline, higher = longer survival",123 % of control and 124 % of control
same,T/C,"endpoint: median survival time, dose: 250.0 mg/kg/injection, schedule: Q01DX011 (ip), vehicle: saline, higher = longer survival",112 % of control and 116 % of control
same,T/C,"endpoint: median survival time, dose: 500.0 mg/kg/injection, schedule: Q01DX011 (ip), vehicle: saline, higher = longer survival",104 % of control and 105 % of control
same,T/C,"endpoint: median survival time, dose: 1000.0 mg/kg/injection, schedule: Q01DX011 (ip), vehicle: saline, higher = longer survival",102 % of control and 105 % of control
O=NN(CCCl)C(=O)Nc1ccc(Cl)c(Cl)c1,T/C,"endpoint: median survival time, dose: 8.0 mg/kg/injection, schedule: Q01DX009 (ip), vehicle: saline with Tween-80, higher = longer survival",116 % of control
same,T/C,"endpoint: median survival time, dose: 16.0 mg/kg/injection, schedule: Q01DX009 (ip), vehicle: saline with Tween-80, higher = longer survival",106 % of control
CNc1nc(N(C)C)nc(N(C)C)n1,T/C,"endpoint: median survival time, dose: 67.0 mg/kg/injection, schedule: Q01DX009 (ip), vehicle: water, higher = longer survival",91 % of control
same,T/C,"endpoint: median survival time, dose: 100.0 mg/kg/injection, schedule: Q01DX009 (ip), vehicle: water, higher = longer survival",116 % of control
